Tests used:
Experiment in all cases: KINOMEscan kinase binding assay (Eurofins/DiscoveRx), % Ctrl
Settings in all cases: 1 μM
[1] = biological target: T1, kinases (Homo sapiens, UniProt P00533, G719C)
T1 construct: purchased Eurofins/DiscoveRx; host or cells: E. coli BL21-derived host (T7 phage display) for most kinases; HEK-293 for the rest
Outline: (§1)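 Competition binding: DNA- or phage-tagged kinases (T7 phage in E. coli BL21, or HEK-293-expressed) with immobilized biotinylated ligand beads and test compound, 1 h at room temperature. Bead-bound kinase eluted and quantified by qPCR; % Ctrl = (compound − positive control)/(negative control − positive control) ×100 at a single compound concentration.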

[2] = biological target: T2, kinases (Homo sapiens, UniProt P10721, D816V)
T2 construct: purchased Eurofins/DiscoveRx; host or cells: E. coli BL21-derived host (T7 phage display) for most kinases; HEK-293 for the rest
T2 sequence (P10721 26-976 D816V): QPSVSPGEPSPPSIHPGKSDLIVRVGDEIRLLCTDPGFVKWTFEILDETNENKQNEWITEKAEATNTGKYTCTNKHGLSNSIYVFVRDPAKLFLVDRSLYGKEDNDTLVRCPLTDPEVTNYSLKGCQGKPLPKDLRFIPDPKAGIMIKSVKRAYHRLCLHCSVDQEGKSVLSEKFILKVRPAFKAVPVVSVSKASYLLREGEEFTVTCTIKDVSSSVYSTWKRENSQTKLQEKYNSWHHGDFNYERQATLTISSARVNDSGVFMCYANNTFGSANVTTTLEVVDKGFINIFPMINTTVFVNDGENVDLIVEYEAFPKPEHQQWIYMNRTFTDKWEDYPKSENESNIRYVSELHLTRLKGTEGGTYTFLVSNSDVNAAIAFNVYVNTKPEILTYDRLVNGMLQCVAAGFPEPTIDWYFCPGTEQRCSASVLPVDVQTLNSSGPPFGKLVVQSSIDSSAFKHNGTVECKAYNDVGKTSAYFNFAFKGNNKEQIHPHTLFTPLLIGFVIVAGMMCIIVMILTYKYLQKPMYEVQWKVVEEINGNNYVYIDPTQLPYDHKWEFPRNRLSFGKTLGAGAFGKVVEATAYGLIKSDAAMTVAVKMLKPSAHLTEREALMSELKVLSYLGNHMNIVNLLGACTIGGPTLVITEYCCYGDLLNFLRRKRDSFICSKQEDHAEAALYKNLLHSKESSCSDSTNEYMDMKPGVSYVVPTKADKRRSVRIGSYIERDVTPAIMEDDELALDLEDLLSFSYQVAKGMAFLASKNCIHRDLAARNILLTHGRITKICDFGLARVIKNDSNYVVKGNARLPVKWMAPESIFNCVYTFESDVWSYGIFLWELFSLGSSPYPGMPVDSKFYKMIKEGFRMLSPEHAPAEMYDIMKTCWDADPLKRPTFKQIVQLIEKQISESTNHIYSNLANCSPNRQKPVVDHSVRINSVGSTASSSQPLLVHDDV
Outline: as §1

[3] = biological target: T3, kinases (Homo sapiens, UniProt P07949, V804L)
T3 construct: purchased Eurofins/DiscoveRx; host or cells: E. coli BL21-derived host (T7 phage display) for most kinases; HEK-293 for the rest
T3 sequence (P07949 29-1114 V804L): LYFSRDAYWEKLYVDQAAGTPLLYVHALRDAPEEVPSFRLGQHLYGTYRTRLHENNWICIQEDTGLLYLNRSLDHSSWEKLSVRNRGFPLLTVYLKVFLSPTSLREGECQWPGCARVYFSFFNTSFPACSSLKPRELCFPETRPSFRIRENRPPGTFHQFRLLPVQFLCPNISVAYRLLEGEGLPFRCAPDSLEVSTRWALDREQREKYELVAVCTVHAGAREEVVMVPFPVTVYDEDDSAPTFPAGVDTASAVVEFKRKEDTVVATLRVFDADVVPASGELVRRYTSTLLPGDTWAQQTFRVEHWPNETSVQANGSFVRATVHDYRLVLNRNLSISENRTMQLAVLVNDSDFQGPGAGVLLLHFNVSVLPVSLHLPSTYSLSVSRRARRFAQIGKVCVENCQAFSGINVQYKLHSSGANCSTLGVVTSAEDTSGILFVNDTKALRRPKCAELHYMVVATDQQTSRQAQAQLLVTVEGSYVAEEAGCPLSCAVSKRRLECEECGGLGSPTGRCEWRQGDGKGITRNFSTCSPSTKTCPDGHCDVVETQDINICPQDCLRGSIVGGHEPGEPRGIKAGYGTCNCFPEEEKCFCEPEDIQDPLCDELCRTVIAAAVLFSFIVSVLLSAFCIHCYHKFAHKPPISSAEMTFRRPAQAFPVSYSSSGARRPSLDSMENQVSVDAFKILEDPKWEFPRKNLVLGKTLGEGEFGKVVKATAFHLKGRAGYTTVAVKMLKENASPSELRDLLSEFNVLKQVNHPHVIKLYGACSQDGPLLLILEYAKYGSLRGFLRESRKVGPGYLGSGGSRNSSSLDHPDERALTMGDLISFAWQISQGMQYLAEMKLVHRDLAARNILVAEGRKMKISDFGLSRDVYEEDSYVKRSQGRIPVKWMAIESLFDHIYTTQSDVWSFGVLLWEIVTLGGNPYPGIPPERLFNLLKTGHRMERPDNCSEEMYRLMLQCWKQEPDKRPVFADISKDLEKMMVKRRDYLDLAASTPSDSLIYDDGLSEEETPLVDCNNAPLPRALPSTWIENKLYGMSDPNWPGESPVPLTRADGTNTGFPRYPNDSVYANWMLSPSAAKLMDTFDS
Outline: as §1

[4] = biological target: T4, kinases (Homo sapiens, UniProt P00533, L861Q)
T4 construct: purchased Eurofins/DiscoveRx; host or cells: E. coli BL21-derived host (T7 phage display) for most kinases; HEK-293 for the rest
Outline: as §1

[5] = biological target: T5, kinases (Homo sapiens, UniProt P00519, H396P)
T5 construct: purchased Eurofins/DiscoveRx; host or cells: E. coli BL21-derived host (T7 phage display) for most kinases; HEK-293 for the rest
Outline: as §1

[6] = biological target: T6, kinases (Homo sapiens, UniProt P00519, F317I)
T6 construct: purchased Eurofins/DiscoveRx; host or cells: E. coli BL21-derived host (T7 phage display) for most kinases; HEK-293 for the rest
Outline: as §1

[7] = biological target: T7, kinases (Homo sapiens, UniProt P00533, G719S)
T7 construct: purchased Eurofins/DiscoveRx; host or cells: E. coli BL21-derived host (T7 phage display) for most kinases; HEK-293 for the rest
Outline: as §1

[8] = biological target: T8, kinases (Homo sapiens, UniProt P00519, E255K)
T8 construct: purchased Eurofins/DiscoveRx; host or cells: E. coli BL21-derived host (T7 phage display) for most kinases; HEK-293 for the rest
Outline: as §1

[9] = biological target: T9, kinases (Homo sapiens, UniProt P36888, K663Q)
T9 construct: purchased Eurofins/DiscoveRx; host or cells: E. coli BL21-derived host (T7 phage display) for most kinases; HEK-293 for the rest
T9 sequence (P36888 27-993 K663Q): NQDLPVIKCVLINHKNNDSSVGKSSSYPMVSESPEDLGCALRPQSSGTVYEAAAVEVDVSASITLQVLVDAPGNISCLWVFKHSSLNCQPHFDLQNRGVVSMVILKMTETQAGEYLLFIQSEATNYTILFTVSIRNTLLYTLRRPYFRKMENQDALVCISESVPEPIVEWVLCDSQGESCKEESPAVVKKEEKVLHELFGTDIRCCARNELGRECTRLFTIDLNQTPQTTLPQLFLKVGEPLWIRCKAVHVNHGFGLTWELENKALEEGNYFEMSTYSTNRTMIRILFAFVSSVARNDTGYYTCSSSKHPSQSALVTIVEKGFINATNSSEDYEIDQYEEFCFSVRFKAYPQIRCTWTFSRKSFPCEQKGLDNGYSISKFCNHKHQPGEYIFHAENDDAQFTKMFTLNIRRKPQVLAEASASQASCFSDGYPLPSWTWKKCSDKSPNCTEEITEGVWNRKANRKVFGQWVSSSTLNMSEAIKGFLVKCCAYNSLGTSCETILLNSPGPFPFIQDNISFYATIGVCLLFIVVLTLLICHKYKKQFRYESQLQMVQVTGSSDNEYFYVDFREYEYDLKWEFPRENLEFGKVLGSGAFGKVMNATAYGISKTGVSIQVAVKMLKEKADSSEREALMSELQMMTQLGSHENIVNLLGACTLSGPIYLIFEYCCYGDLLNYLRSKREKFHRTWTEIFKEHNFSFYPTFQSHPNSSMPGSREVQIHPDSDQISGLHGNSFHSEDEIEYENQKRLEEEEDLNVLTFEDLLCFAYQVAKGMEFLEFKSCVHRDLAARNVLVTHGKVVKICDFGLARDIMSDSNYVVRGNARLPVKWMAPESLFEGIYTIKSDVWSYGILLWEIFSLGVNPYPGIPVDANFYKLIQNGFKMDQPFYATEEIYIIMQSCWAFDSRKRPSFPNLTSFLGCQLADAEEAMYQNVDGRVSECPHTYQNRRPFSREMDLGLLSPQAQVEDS
Outline: as §1

SMILES | % Ctrl, EGFR(G719C) ([1]; EGFR(G719C)) [% Ctrl] | % Ctrl, KIT(D816V) ([2]; KIT(D816V)) [% Ctrl] | % Ctrl, RET(V804L) ([3]; RET(V804L)) [% Ctrl] | % Ctrl, EGFR(L861Q) ([4]; EGFR(L861Q)) [% Ctrl] | % Ctrl, ABL1(H396P)-nonphosphorylated ([5]; ABL1(H396P)-nonphosphorylated) [% Ctrl] | % Ctrl, ABL1(H396P)-phosphorylated ([5]; ABL1(H396P)-phosphorylated) [% Ctrl] | % Ctrl, ABL1(F317I)-nonphosphorylated ([6]; ABL1(F317I)-nonphosphorylated) [% Ctrl] | % Ctrl, ABL1(F317I)-phosphorylated ([6]; ABL1(F317I)-phosphorylated) [% Ctrl] | % Ctrl, EGFR(G719S) ([7]; EGFR(G719S)) [% Ctrl] | % Ctrl, ABL1(E255K)-phosphorylated ([8]; ABL1(E255K)-phosphorylated) [% Ctrl] | % Ctrl, FLT3(K663Q) ([9]; FLT3(K663Q)) [% Ctrl] | also measured
Cc1cc2c([nH]1)/C=C1\C(=O)Nc3ccc(nc31)-c1ccccc1OCCCNC2=O [Ex.22, [3a(4)Z]-6-methyl-9,10,11,12-tetrahydro-1,18-(ethanediylidene)dipyrrolo[3,2-g:3′,4′-j][1,5,12]benzoxadiazacyclopentadecine-3,8(2H,5H)-dione] | 93 | 96 | 98 | 87 | 90 | 77 | 88 | 100 | 95 | 67 | 100 | –
Cc1cc2c([nH]1)/C=C1\C(=O)Nc3ccc(cc31)-c1ccnn1CCOCCNC2=O [Ex.39, [19a(20)Z]-2-methyl-6,7,9,10-tetrahydro-1H-15,17-(ethanediylidene)pyrazolo[1,5-d]dipyrrolo[3,4-h:2′,3′-k][1,4,14]oxadiazacyclohexadecine-4,19(5H,18H)-dione] | 70 | 91 | 87 | 68 | 74 | 82 | 100 | 64 | 77 | 72 | 100 | –
Cc1cc2c([nH]1)/C=C1\C(=O)Nc3cnc(nc31)N(C)CCCOCCN(C)C2=O [Ex.71, [17a(18)Z]-2,5,12-trimethyl-6,7,9,10,11,12-hexahydro-1H-13,15-(azenometheno)dipyrrolo[3,2-f:3′,4′-i][1,4,11,13]oxatriazacyclohexadecine-4,17(5H,16H)-dione] | 71 | 100 | 95 | 80 | 100 | 98 | 100 | 100 | 76 | 85 | 84 | –
Cc1cc2c([nH]1)/C=C1\C(=O)Nc3ccc(cc31)OCCOCCN(C)C2=O [Ex.91, [16a(17)Z]-2,5-dimethyl-6,7,9,10-tetrahydro-1H-12,14-(ethanediylidene)dipyrrolo[3,2-i:3′,4′-l][1,4,7]dioxazacyclopentadecine-4,16(5H,15H)-dione] | 92 | 20 | 3.8 | 66 | 0.55 | 15 | 20 | 39 | 87 | 14 | 63 | –
Cc1cc2c([nH]1)/C=C1\C(=O)Nc3ccc(cc31)CN(C)C(=O)COCCNC2=O [Ex.111, [17a(18)Z]-2,11-dimethyl-6,7,11,12-tetrahydro-1H-13,15-(ethanediylidene)dipyrrolo[3,2-f:3′,4′-i][1,4,14]oxadiazacyclohexadecine-4,10,17(5H,9H,16H)-trione] | 73 | 76 | 71 | 64 | 62 | 61 | 89 | 100 | 77 | 42 | 44 | –
Cc1cc2c([nH]1)/C=C1\C(=O)Nc3cnc(cc31)-c1cnn(C)c1COCCNC2=O [Ex.123, [3a(4)Z]-6,14-dimethyl-10,11,13,14-tetrahydro-2H-17,1-(azenometheno)pyrazolo[4,3-m]dipyrrolo[3,2-f:3′,4′-i][1,4]oxazacyclopentadecine-3,8(5H,9H)-dione] | 90 | 100 | 89 | 100 | 100 | 100 | 100 | 100 | 94 | 92 | 77 | –
Cc1cc2c([nH]1)/C=C1\C(=O)Nc3ccc(cc31)-c1ccnn1CCOCCN(C)C2=O [Ex. 41, [19a(20)Z]-2,5-dimethyl-6,7,9,10-tetrahydro-1H-15,17-(ethanediylidene)pyrazolo[1,5-d]dipyrrolo[3,4-h:2′,3′-k][1,4,14]oxadiazacyclohexadecine-4,19(5H,18H)-dione] | 88 | 38 | 17 | 91 | 6.1 | 5 | 54 | 75 | 86 | 49 | 17 | –
Cc1cc2c([nH]1)/C=C1\C(=O)Nc3ccc(cc31)-c1ccnn1CCNCCNC2=O [Ex. 43, [19a(20)Z]-2-methyl-5,6,7,8,9,10-hexahydro-15,17-(ethanediylidene)pyrazolo[1,5-g]dipyrrolo[3,4-k:2′,3′-n][1,4,7]triazacyclohexadecine-4,19(1H,18H)-dione] | 92 | 96 | 100 | 90 | 64 | 89 | 68 | 94 | 92 | 84 | 72 | –
Cc1cc2c([nH]1)/C=C1\C(=O)Nc3cnc(cc31)-c1cn[nH]c1CNCCN(C)C2=O [Ex. 55, [3a(4)Z]-6,9-dimethyl-9,10,11,12,13,14-hexahydro-17,1-(azenometheno)pyrazolo[4,3-m]dipyrrolo[3,2-f:3′,4′-i][1,4]diazacyclopentadecine-3,8(2,5H)-dione] | – | – | – | – | – | – | – | – | – | – | – | % Ctrl, EGFR(G719C) ([1]; target EGFR(G719C)): 68 % Ctrl; % Ctrl, KIT(D816V) ([2]; target KIT(D816V)): 1.3 % Ctrl; % Ctrl, RET(V804L) ([3]; target RET(V804L)): 0.3 % Ctrl; % Ctrl, EGFR(L861Q) ([4]; target EGFR(L861Q)): 58 % Ctrl; % Ctrl, ABL1(H396P)-nonphosphorylated ([5]; target ABL1(H396P)-nonphosphorylated): 0.8 % Ctrl; % Ctrl, ABL1(H396P)-phosphorylated ([5]; target ABL1(H396P)-phosphorylated): 3.6 % Ctrl; % Ctrl, ABL1(F317I)-nonphosphorylated ([6]; target ABL1(F317I)-nonphosphorylated): 66 % Ctrl; % Ctrl, ABL1(F317I)-phosphorylated ([6]; target ABL1(F317I)-phosphorylated): 41 % Ctrl; % Ctrl, EGFR(G719S) ([7]; target EGFR(G719S)): 67 % Ctrl; % Ctrl, ABL1(E255K)-phosphorylated ([8]; target ABL1(E255K)-phosphorylated): 2.6 % Ctrl; % Ctrl, FLT3(K663Q) ([9]; target FLT3(K663Q)): 1.2 % Ctrl

Source: patent publication US20230257396A1, “MACROCYCLES AND THEIR USE” (BLOSSOMHILL THERAPEUTICS, INC., priority 2020, published 2023)
